Measurements published in article PMC4624480 (Biochemistry, 2015).
Values after ≈ are worked out from the molar mass of the structure shown.

Columns and labels:
pKa of the OSB analogue = pKa of the OSB analogue (side chain)
E. coli MenE (ecMenE) = E. coli MenE (ecMenE) (Escherichia coli, UniProt P37353); assay type: biochemical
B. subtilis (ATCC 6057) = assay: Antibacterial activity; assay type: cell-based
E. coli (K-12) = assay: Antibacterial activity; settings: aerobic, MIC-99 by visual inspection
ecMenE (wild-type) = ecMenE (wild-type) (Escherichia coli, UniProt P37353); assay: Isothermal titration calorimetry, wild-type ecMenE; settings: ITC, wt ecMenE
Chain of ecMenE (wild-type) (P37353 whole entry): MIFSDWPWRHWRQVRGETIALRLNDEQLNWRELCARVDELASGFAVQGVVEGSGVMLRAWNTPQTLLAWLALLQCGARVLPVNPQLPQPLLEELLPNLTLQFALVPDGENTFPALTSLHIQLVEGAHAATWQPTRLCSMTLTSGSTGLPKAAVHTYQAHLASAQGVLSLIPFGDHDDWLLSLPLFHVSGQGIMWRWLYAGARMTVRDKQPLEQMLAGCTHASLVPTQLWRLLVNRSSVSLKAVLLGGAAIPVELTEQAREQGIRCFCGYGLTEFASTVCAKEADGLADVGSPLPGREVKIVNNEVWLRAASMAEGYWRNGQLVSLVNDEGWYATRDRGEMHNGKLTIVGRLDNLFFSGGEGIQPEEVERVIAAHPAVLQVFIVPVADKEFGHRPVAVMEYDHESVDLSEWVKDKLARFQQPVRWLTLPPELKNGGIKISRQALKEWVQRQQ

[1] = tested on: methicillin-resistant S. aureus (ATCC BAA-1762); assay: Growth rescue: MIC with exogenous MK4, MRSA; assay type: cell-based; settings: exogenous 10 μg/mL MK4 added to the synthetic growth media
M. tuberculosis (H37Rv) [2] = assay: Growth rescue: MIC with exogenous MK4, M. tuberculosis; assay type: cell-based; settings: exogenous 10 μg/mL MK4 added to the synthetic growth media
[3] = tested on: methicillin-resistant S. aureus (ATCC BAA-1762); assay: Antibacterial activity; assay type: cell-based
[4] = tested on: Vero (monkey kidney epithelial) cells; assay: Cytotoxicity, Trypan Blue; assay type: cell-based; settings: minimum concentration giving ~90% cell death
[5] = tested on: menaquinone levels in S. aureus; assay: Quantification of menaquinone levels by LC-MS/MS; assay type: cell-based
M. tuberculosis (H37Rv) [6] = assay: Antibacterial activity; assay type: cell-based
[7] = tested on: B. subtilis, MRSA and M. tuberculosis; assay: Antibacterial activity; assay type: cell-based; settings: summary in text over B. subtilis, MRSA (S. aureus)

Chain of E. coli MenE (ecMenE) (P37353 whole entry): as above

MSB-AMS [compound 2]
pKa (pKa of the OSB analogue): 4 | effect on MenE activity (E. coli MenE (ecMenE)): did not affect MenE activity | inhibition of ecMenE (E. coli MenE (ecMenE)): no inhibition

O=C(O)CCC(=O)c1ccccc1C(=O)O [OSB, o-succinylbenzoate]
Km (E. coli MenE (ecMenE); read-out: KM OSB, wt ecMenE, pH 7.4, 25°C): 1 ± 0.02 µM | kcat (E. coli MenE (ecMenE); wt ecMenE, substrate OSB): 0.767 ± 0.002 s⁻¹

Nc1ncnc2c1ncn2[C@@H]1O[C@H](COS(=O)(=O)NC(=O)CCC(=O)c2ccccc2C(=O)O)[C@@H](O)[C@H]1O [compound 1, OSB-AMS]
MIC (B. subtilis (ATCC 6057)): 62.5 µg/mL (≈ 114 µM) | MIC (E. coli (K-12)): > 500 µg/mL | ΔG (ecMenE (wild-type)): -10.0 kcal/mol | ΔH (ecMenE (wild-type)): -2.0 ± 0.1 kcal/mol | Kd (ecMenE (wild-type); read-out: Kd OSB-AMS): 44 ± 11 nM | MIC + MK4 [1]: > 250 µg/mL | MIC + MK4 (M. tuberculosis (H37Rv) [2]): > 250 µg/mL | MIC ([3]; MRSA (ATCC BAA-1762)): 31.25 µg/mL (≈ 56.8 µM) | antibacterial activity lower than the IC50 for enzyme inhibition ([3]; antibacterial activity vs enzyme IC50): ~ 1000 fold | Cytotoxicity [4]: 125 µg/mL | decrease in MK levels ([5]; MRSA, 15.6 μM OSB-AMS (half-MIC)): ~ 60% | decrease in the levels of all menaquinones ([5]; S. aureus treated with OSB-AMS below its MIC): 3–5 fold | MIC (M. tuberculosis (H37Rv) [6]): 125 µg/mL (≈ 227 µM) | MIC [7]: 30 to 125 µg/mL
